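GI50 is the concentration that inhibits growth by half. TGI: concentration producing complete growth inhibition.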
Legend:
Assay in all cases: inhibition of tumour cell growth, NCI panel, 384-well format
CCRF-CEM leukemia = tested on: CCRF-CEM leukemia
EKVX NSCLC = tested on: EKVX NSCLC
HCC-2998 colon = tested on: HCC-2998 colon
HL-60(TB) leukemia = tested on: HL-60(TB) leukemia
HOP-92 NSCLC = tested on: HOP-92 NSCLC
MALME-3M melanoma = tested on: MALME-3M melanoma
NCI-H226 lung = tested on: NCI-H226 lung
NCI-H522 lung = tested on: NCI-H522 lung
OVCAR-5 ovarian = tested on: OVCAR-5 ovarian
SK-MEL-2 melanoma = tested on: SK-MEL-2 melanoma
SNB-19 CNS = tested on: SNB-19 CNS
T-47D breast = tested on: T-47D breast
UACC-62 melanoma = tested on: UACC-62 melanoma

With `Cc1cc(C)c(CNC(=O)c2cc(-c3ccc(CN4CCOCC4)cc3)cc3c2cnn3C2CCCC2)c(=O)[nH]1` the GI50 (CCRF-CEM leukemia) was 3.42 µM, the TGI (CCRF-CEM leukemia) was 8.99 µM and the GI50 (EKVX NSCLC) was 3.41 µM. It also gave a TGI (EKVX NSCLC) of 21.6 µM, a GI50 (HCC-2998 colon) of 6.61 µM and a TGI (HCC-2998 colon) of 17.7 µM. It also gave a GI50 (HL-60(TB) leukemia) of 4.13 µM, a TGI (HL-60(TB) leukemia) of 12.6 µM and a GI50 (HOP-92 NSCLC) of 6.29 µM. It also gave a TGI (HOP-92 NSCLC) of 17.1 µM, a GI50 (MALME-3M melanoma) of 5.49 µM and a TGI (MALME-3M melanoma) of 15.9 µM. It also gave a GI50 (NCI-H226 lung) of 12.9 µM, a TGI (NCI-H226 lung) of 25.9 µM and a GI50 (NCI-H522 lung) of 15.3 µM. The TGI (NCI-H522 lung) was 28.7 µM, the GI50 (OVCAR-5 ovarian) was 13.1 µM and the TGI (OVCAR-5 ovarian) was 26 µM. It also gave a GI50 (SK-MEL-2 melanoma) of 13 µM, a TGI (SK-MEL-2 melanoma) of 25.7 µM and a GI50 (SNB-19 CNS) of 9.84 µM. For the same compound, the TGI (SNB-19 CNS) was 23.4 µM, the GI50 (T-47D breast) was 0.986 µM and the TGI (T-47D breast) was 10.6 µM. The GI50 (UACC-62 melanoma) was 12.3 µM and the TGI (UACC-62 melanoma) was 24.9 µM.

— PubChem BioAssay (NCI)
